In patent EP0224257A1, “Stabilized benzimidazole derivatives” (SYNTEX (U.S.A.) INC., priority 1985, dated 1987):

Test: Blood plasma levels after oral administration to dogs
Assay type: in vivo
Conditions: 10 mg/kg, compared with oxfendazole in commercially available form
Procedure: Dogs were administered orally either amorphous or crystalline oxfendazole at a dose of 10 mg/kg.
Blood samples were drawn and analyzed before administration and on days 1, 2, 3, 7, 10 and 13 following administration. The area under the curve was calculated for plasma concentration vs time profile.

- plasma level of oxfendazole: higher plasma level
Structure (SMILES): COC(=O)Nc1nc2ccc([S+]([O-])c3ccccc3)cc2[nH]1 (stereo not shown) [amorphous oxfendazole, methyl 5-(phenylsulfinyl)-1H-benzimidazol-2-yl carbamate]
